The source of these data is article PMC6152134, “Synthesis and In Vitro Anticancer Activity of Novel Dehydroabietic Acid-Based Acylhydrazones” (Molecules : A Journal of Synthetic Chemistry and Natural …, 2017).

Series [1] has as its system CNE-2 (nasopharynx) human carcinoma cell line. As to the kind of experiment: MTT cytotoxicity assay, CNE-2 cells. The series is classed as cell-based. Conditions: 48 h exposure. The method, then: (§1) Compounds 4a–x were evaluated for their cytotoxic activity in vitro against the human cancer cell lines, CNE-2, HepG2, HeLa, and BEL-7402 by using a 3-(4,5-dimethylthiazol-2-yl)-2,5-diphenyl tetrazolium bromide (MTT) colorimetric assay. Cisplatin was included in the experiments as a positive control, and the IC50 of DHA is also presented to compare the anticancer activities. The calculated IC50 values were reported differently according to the different cancer cells.
(§2) The CNE-2, HepG2, HeLa, and BEL-7402 cell lines used in this work were all purchased from the Institute of Biochemistry and Cell Biology, China Academy of Sciences. All were supplemented with 10% heat-inactivated fetal bovine serum in a humidified atmosphere of 5% CO2/95% air at 37 °C. In order to investigate the potential of compounds 4, cisplatin, a commercial classical anticancer drug was used as a reference drug. CNE-2, HepG2, HeLa, and BEL-7402 cells were seeded into 96-well microculture plates and allowed to adhere for 24 h, respectively. After cells were exposed to compounds at concentrations from 100 to 0.1 μM for 48 h, medium was aspirated and replenished with complete medium. IC50 values was evaluated by MTT tetrazolium dye assay. All the tests were repeated in at least three independent experiments. The IC50 values of the compounds were calculated using SPSS Version 10 software (IBM, New York, NY, USA), which defined the IC50 value as the concentration required to inhibit cell growth by 50%.
Background: Formazan colour is commonly taken as a measure of viable cells.

The test system of series [2] is HepG2 (liver) human carcinoma cell line. In words: MTT cytotoxicity assay, HepG2 cells. To be noted: 48 h exposure. The series is classed as cell-based. The method, then: as §1, §2
For series [3], the system named is HeLa (epithelial cervical) human carcinoma cell line. As to the kind of experiment: MTT cytotoxicity assay, HeLa cells. The series is classed as cell-based. Conditions: 48 h exposure. The method, then: as §1, §2
Series [4] has as its system BEL-7402 (liver) human carcinoma cell line. In words: MTT cytotoxicity assay, BEL-7402 cells. The series is classed as cell-based. Conditions: 48 h exposure. As for the experimental part: as §1, §2
Series [5] deals with HL-7702 normal human liver cell line. As to the kind of experiment: MTT cytotoxicity assay, HL-7702 normal liver cells. The series is classed as cell-based.
The mark [6] stands for this setting: L02, normal human liver cell HL-7702.

Where only a bound is given, the exact number is not on record here.

As a reminder, the IC50 is the concentration at which inhibition is half-maximal. The term melting point denotes the temperature, or range, at which the solid turns liquid. As for `CC(C)c1ccc2c(c1)CCC1C(C)(C(=O)OCC(=O)NN=Cc3ccccc3)CCCC21C` (stereo not shown) [4a], the melting point was in the range of 155.1 to 156.7 °C. The compound also yielded an IC50 in series [1] (Homo sapiens) of 28.2 ± 0.43 µM. Moreover, half-maximal inhibition in series [2] (Homo sapiens, HepG2, 48 h) (IC50) required 27.8 ± 0.58 µM. In addition, 17.89 ± 0.13 µM corresponded to half-maximal inhibition in series [3] (Homo sapiens, HeLa, 48 h) (IC50). This compound also gave an IC50 in series [4] (Homo sapiens) of 36.7 ± 0.34 µM. Besides, the IC50 in series [5] (setting [6]) was > 100 µM.
In turn, `Cc1ccc(C=NNC(=O)COC(=O)C2(C)CCCC3(C)c4ccc(C(C)C)cc4CCC23)cc1` (stereo not shown) [4b] showed a melting point of 170 to 172.1 °C. This compound returned an IC50 in series [1] (Homo sapiens) of 17.2 ± 0.21 µM. For the same compound, the IC50 in series [2] (Homo sapiens, HepG2, 48 h) is 12.4 ± 0.31 µM. For the same compound, in series [3] (Homo sapiens, HeLa, 48 h), the IC50 was determined as 6.72 ± 0.22 µM. The compound further showed an IC50 in series [4] (Homo sapiens) of 15.38 ± 0.08 µM. In series [5] (setting [6]), this compound registered an IC50 of 68.6 ± 2.14 µM.
For `CC(C)c1ccc2c(c1)CCC1C(C)(C(=O)OCC(=O)NN=C/C=C/c3ccccc3)CCCC21C` (stereo not shown) [4c, N’-(3-Phenylallylidene)-2-(dehydroabietyloxy)acetohydrazide], the melting point was in the range of 185.7 to 187.3 °C. Besides, half-maximal inhibition in series [1] (Homo sapiens) (IC50) was put at 15.8 ± 0.56 µM. Moreover, in series [2] (Homo sapiens, HepG2, 48 h), half-maximal inhibition (IC50) was put at 27.6 ± 0.23 µM. For the same compound, in series [3] (Homo sapiens, HeLa, 48 h), the IC50 amounted to 10.8 ± 0.43 µM. In addition, the IC50 in series [4] (Homo sapiens) amounted to 21.03 ± 0.09 µM. In series [5] (setting [6]), this compound yielded a half-inhibitory concentration (IC50) of 53.2 ± 1.36 µM.
`COc1cc(C=NNC(=O)COC(=O)C2(C)CCCC3(C)c4ccc(C(C)C)cc4CCC23)ccc1O` (stereo not shown) [4d] came in with a melting point of 117.6 to 119 °C. Half-maximal inhibition in series [1] (Homo sapiens) (IC50) required 38.7 ± 0.49 µM. Moreover, in series [2] (Homo sapiens, HepG2, 48 h), the IC50 came to 35.26 ± 0.11 µM. Besides, in series [3] (Homo sapiens, HeLa, 48 h), the IC50 was found to be 12.22 ± 0.08 µM. In addition, the IC50 in series [4] (Homo sapiens) amounted to 33.6 ± 0.38 µM. Also, the IC50 in series [5] (setting [6]) amounted to 50.7 ± 1.82 µM.
Compound `CC(C)c1ccc2c(c1)CCC1C(C)(C(=O)OCC(=O)NN=Cc3ccc(N(C)C)cc3)CCCC21C` (stereo not shown) [4e] yielded a melting point of 163.4 to 164.7 °C. This compound also showed an IC50 in series [1] (Homo sapiens) of 48.85 ± 0.05 µM. Besides, half-maximal inhibition in series [2] (Homo sapiens, HepG2, 48 h) (IC50) required 7.62 ± 0.32 µM. This compound also returned an IC50 in series [3] (Homo sapiens, HeLa, 48 h) of 34.92 ± 0.16 µM. For the same compound, in series [4] (Homo sapiens), the midpoint of inhibition, the IC50, lay at 15.6 ± 0.44 µM. The compound also registered an IC50 in series [5] (setting [6]) of 63 ± 3.06 µM.
`CC(C)c1ccc2c(c1)CCC1C(C)(C(=O)OCC(=O)NN=Cc3ccco3)CCCC21C` (stereo not shown) [4f] registered a melting point of 125.7 to 126.4 °C. In series [1] (Homo sapiens), this compound returned an IC50 of 51.39 ± 0.34 µM. In series [2] (Homo sapiens, HepG2, 48 h), this compound came in with an IC50 of 25.6 ± 0.35 µM. In series [3] (Homo sapiens, HeLa, 48 h), this compound showed an IC50 of 33.23 ± 0.21 µM. The compound also returned an IC50 in series [4] (Homo sapiens) of 16.9 ± 0.41 µM. For the same compound, the IC50 in series [5] (setting [6]) came to 61.9 ± 1.34 µM.
For `CC(C)c1ccc2c(c1)CCC1C(C)(C(=O)OCC(=O)NN=Cc3ccccc3O)CCCC21C` (stereo not shown) [4g], the melting point lay in the range of 214.9 to 215.6 °C. Besides, the IC50 in series [1] (Homo sapiens) amounted to 60.4 ± 1.02 µM. The IC50 in series [2] (Homo sapiens, HepG2, 48 h) is 12.5 ± 0.46 µM. This compound also displayed an IC50 in series [3] (Homo sapiens, HeLa, 48 h) of 27.3 ± 0.5 µM. For the same compound, in series [4] (Homo sapiens), half-maximal inhibition (IC50) required 36.4 ± 0.74 µM. In series [5] (setting [6]), the IC50 was > 100 µM.
With `CC(C)c1ccc2c(c1)CCC1C(C)(C(=O)OCC(=O)NN=Cc3ccccc3[N+](=O)[O-])CCCC21C` (stereo not shown) [4h], the melting point lay within 94.9 to 96.7 °C. In series [1] (Homo sapiens), this compound had an IC50 of 98.78 ± 0.45 µM. The compound also registered an IC50 in series [2] (Homo sapiens, HepG2, 48 h) of 44.6 ± 0.92 µM. In series [3] (Homo sapiens, HeLa, 48 h), this compound came in with an IC50 of 15.2 ± 0.29 µM. Besides, in series [4] (Homo sapiens), the IC50 was 38.5 ± 0.52 µM. Also, the IC50 in series [5] (setting [6]) was > 100 µM.
In turn, `CC(C)c1ccc2c(c1)CCC1C(C)(C(=O)OCC(=O)NN=Cc3cccc([N+](=O)[O-])c3)CCCC21C` (stereo not shown) [4i] came in with a melting point of 99.6 to 101.9 °C. The IC50 in series [1] (Homo sapiens) came out at 12.6 ± 0.24 µM. The compound further yielded an IC50 in series [2] (Homo sapiens, HepG2, 48 h) of 57.8 ± 0.75 µM. The compound also had an IC50 in series [3] (Homo sapiens, HeLa, 48 h) of 13.9 ± 0.41 µM. This compound displayed an IC50 in series [4] (Homo sapiens) of 44.65 ± 0.21 µM. For the same compound, in series [5] (setting [6]), the IC50 turned out to be 77.1 ± 0.96 µM.
On to `N.N.[Cl][Pt][Cl]` [Cisplatin, cisplatin, reference compound], for which the IC50 in series [1] came to 8.75 ± 0.24 µM; in series [2] it was 6.42 ± 0.18 µM; in series [3], 1.94 ± 0.2 µM; in series [4], 12.7 ± 0.33 µM; in series [5] (normal human liver cell HL-7702), 20.8 ± 0.83 µM.
Take `CC(C)c1ccc2c(c1)CC[C@H]1[C@](C)(C(=O)O)CCC[C@]21C` [DHA, dehydroabietic acid]: the IC50 in series [1] (Homo sapiens) was 88.64 ± 0.73 µM; in series [2] (Homo sapiens, HepG2, 48 h), 80.4 ± 0.84 µM; in series [3] (Homo sapiens, HeLa, 48 h), 37.4 ± 0.64 µM; in series [4] (Homo sapiens) it was 46.7 ± 0.55 µM; in series [5] (setting [6]), > 100 µM.
